Laboratory results published in patent US9328369B2, “Process for production of useful substance, and surfactant for use in the process” (priority 2009, dated 2016).

Assays:
Type in all cases: cell-based
[1] = system: Escherichia coli (β); assay: Screening of secretion efficiency, TorA expressing strain; details: surfactant 1 wt %; 37° C., 1 hour; ELISA, anti-His-tag antibody
Text: A torA gene of an Escherichia coli strain W3110 was amplified by the PCR method using primers 3 and 4 (Table 4). After being treated with restriction enzymes NdeI and BamHI, a PCR fragment was bound to an NdeI restriction enzyme site and a BamHI restriction enzyme site of a pET-22b plasmid (product of Novagen). Then, the plasmid was transformed into an AG1 (DE3) Escherichia coli strain to form a TorA expressing strain (β). Localization of the expressed TorA in a periplasmic fraction was confirmed by conducting an analysis based on the method disclosed in page 121 of Vol. 353 of METHODS IN ENZYMOLOGY (2002).
A pdxA gene of an Escherichia coli strain W3110 was amplified by the PCR method using primers 5 and 6 (Table 4). After being treated with restriction enzymes NdeI and BamHI, a PCR fragment was bound to an NdeI restriction enzyme site and a BamHI restriction enzyme site of a pET-22b plasmid (product of Novagen). Then, the plasmid was transformed into an AG1 (DE3) Escherichia coli strain to form a PdxA expressing strain (γ). Localization of the expressed PdxA in a cytoplasmic compartment was confirmed by conducting an analysis based on the method disclosed in page 121 of Vol. 353 of METHODS IN ENZYMOLOGY (2002). […]
(4) Then, the solution was allowed to stand at 37° C. for 1 hour. […] Here, the quantification of the recombinant protein in the resulting solution was carried out by ELISA assay with use of an anti-His-tag antibody. The sample prior to the centrifugation in the process (3) was treated with ultrasonic waves (200 W, 10 minutes) and the quantification of the recombinant protein therein was similarly carried out by ELISA assay with use of an anti-His-tag antibody. The ratio of lysed bacteria was obtained with use of Escherichia coli (γ), and the secretion efficiencies of the recombinant proteins of Escherichia coli (α) and (β) were calculated by using the following formula. […]
“Z” represents the ratio of lysed bacteria obtained with use of Escherichia coli (γ), which is determined by the following formula: Z=Z1/Z2. […]

[2] = system: Escherichia coli (α); assay: Screening of secretion efficiency, alkaline phosphatase expressing strain; details: surfactant 1 wt %; 37° C., 1 hour; ELISA, anti-His-tag antibody
Text: An alkaline phosphatase (phoA) gene of an Escherichia coli strain W3110 was amplified by the PCR method using primers 1 and 2 (Table 4). After being treated with restriction enzymes NdeI and BamHI, a PCR fragment was bound with an NdeI restriction enzyme site and with a BamHI restriction enzyme site of a pET-22b plasmid (product of Novagen). Then, the plasmid was transformed into an AG1 (DE3) Escherichia coli strain formed by transforming an Escherichia coli strain AG1 (product of TOYOBO Co., LTD.) with use of a λDE3 Lysogenization Kit (product of Novagen). In this manner, an alkaline phosphatase expressing strain (a) was formed.
A pdxA gene of an Escherichia coli strain W3110 was amplified by the PCR method using primers 5 and 6 (Table 4). After being treated with restriction enzymes NdeI and BamHI, a PCR fragment was bound to an NdeI restriction enzyme site and a BamHI restriction enzyme site of a pET-22b plasmid (product of Novagen). Then, the plasmid was transformed into an AG1 (DE3) Escherichia coli strain to form a PdxA expressing strain (γ).
In this manner, culture solutions were prepared.
(2) The strains were collected using a centrifuge (4,000 G, 4° C., 15 minutes). Each of the collected Escherichia coli strains was resuspended in 1 mL of a TB culture solution (product of Difco) and chloramphenicol (30 mg/L) and IPTG (100 μM) were added thereto. Shake culture at 37° C. for 3 hours induced expression of phoA, torA, and pdxA.
(3) Subsequently, harvesting using a centrifuge was carried out again (4,000 G, 4° C., 15 minutes). Each of the collected Escherichia coli strains was resuspended in 2.5 mL of a Tris-NaCl buffer solution (50 mM Tris (pH 7.5), 100 mM NaCl). The resulting solution was divided into 25-μL portions at a time to be mixed with 25 μL of a Tris-NaCl buffer solution.
(4) Then, the solution was allowed to stand at 37° C. for 1 hour. The supernatant solution was collected and diluted in a Tris-NaCl buffer solution to a proper concentration. Here, the quantification of the recombinant protein in the resulting solution was carried out by ELISA assay with use of an anti-His-tag antibody. The sample prior to the centrifugation in the process (3) was treated with ultrasonic waves (200 W, 10 minutes) and the quantification of the recombinant protein therein was similarly carried out by ELISA assay with use of an anti-His-tag antibody. The ratio of lysed bacteria was obtained with use of Escherichia coli (γ), and the secretion efficiencies of the recombinant proteins of Escherichia coli (α) and (β) were calculated by using the following formula. […] Secretion efficiency (%)=100×{(X/Y)−Z}.
In the formula, “X” represents the amount of the recombinant protein in the culture solution after removal of bacterial cells by centrifugation in the case of using Escherichia coli (α) or (β).
“Y” represents the amount of the whole recombinant protein in the culture solution in the case of using Escherichia coli (α) or (β).
“Z” represents the ratio of lysed bacteria obtained with use of Escherichia coli (γ), which is determined by the following formula: Z=Z1/Z2.
In the formula, “Z1” represents the amount of the recombinant protein in the culture solution which remains after removal of bacterial cells by centrifugation in the case of using Escherichia coli (γ).
“Z2” represents the amount of the whole recombinant protein in the culture solution in the case of using Escherichia coli (γ).
Escherichia coli (α) and (β) were each cultured in the same manner as in the above case except that polyoxyethylene (3 mol) tridecyl ether sodium acetate as the surfactant (A) was added right after the resuspension of the Escherichia coli in the buffer solution in the process (3) of A-0, in an amount of 1% by weight on the basis of the weight of the suspension of the bacterium. The secretion efficiency was calculated according to the above-mentioned definition.

[3] = system: Escherichia coli(δ); assay: Production by secretion in microbial culture system, cellulase expressing strain (Table 5); details: Examples 2-11; surfactant 1 wt %; supernatant of culture solution, SDS-PAGE
[4] = system: Escherichia coli(δ); assay: as above; design: key to Turbidity: (measured turbidity of diluted culture − blank) × dilution rate; details: Examples 2-11, surfactant 1 wt %; for Dried cell density: at termination of culturing, obtained from turbidity; for Turbidity: culturing terminated after 48 hours
Method: A bglC gene of Bacillus licheniformis was amplified by the PCR method using primers 9 and 10 (Table 4). After being treated with restriction enzymes NcoI and BamHI, a PCR amplified fragment was bound to an NcoI restriction enzyme site and a BamHI restriction enzyme site of a pET-22b plasmid (product of Novagen). Then, the plasmid was transformed into a BL21 (DE3) Escherichia coli strain (product of Novagen) to form Escherichia coli […] that expresses cellulase.
Overnight cultures (1 ml) of Escherichia coli (δ) obtained in Production Example 4 and Escherichia coli (ε) obtained in Production Example 5 were respectively prepared as Comparative Example 2 and Comparative Example 4. An amount of 0.5 ml of each was inoculated in 5 ml of an LB culture solution (containing 100 mg/L of ampicillin) and was shake-cultured at 30° C. for 3 hours. In this manner, pre-culture solutions were prepared. The pre-culture solutions were each inoculated in 50 mL of a culture solution (1.2 g of yeast extract (Nihon Pharmaceutical Co., Ltd.), 0.6 g of polypeptone (Nihon Pharmaceutical Co., Ltd.), 0.47 g of dipotassium phosphate, 0.11 g of monopotassium phosphate, 0.35 g of ammonium sulfate, 0.66 g of disodium phosphate 12-hydrate, 0.02 g of sodium citrate dihydrate, 0.2 g of glycerol, 1.5 g of lactalbumin hydrolysate, 0.3 g of a defoaming agent (Shin-Etsu Chemical Co., Ltd., “KM-70”), 1 mM magnesium sulfate, trace metal solution (18.9 μg of calcium chloride, 500 μg of iron chloride (III), 9.0 μg of zinc sulfate heptahydrate, 5.1 μg of copper sulfate, 6.7 μg of manganese chloride tetrahydrate, 4.9 μg of cobalt chloride, 200 μg of ethylene-diamine-tetraacetic acid tetrasodium salt), 100 mg/L ampicillin). Culturing was initiated with use of a microbial culture system (ABLE Corporation, product name “BioJr. 8”), while the pH value and the temperature were maintained at 6.8 and 30° C. After the culturing was initiated, 0.15 mL of 1M IPTG was added. After 14 hours from the initiation of culturing, instillation of a glycerin/protein solution (50% of glycerin, 50 g/L of lactalbumin hydrolysate, a 33 g/L defoaming agent (Shin-Etsu Chemical Co., Ltd., “KM-70”), 100 mg/L ampicillin) was started. The culturing was terminated after 48 hours from the initiation and the culture solution was recovered. The whole protein in the culture solution was analyzed by SDS-PAGE. Based on the obtained amount of the protein band, the recombinant protein was quantified.
The dried cell density at the termination of the culturing was determined by the following processes (1) to (5):
The dried cell density was determined by applying the measuring results in the process (5) and the process (1) and the volume (L) of the culture solution used in the process (2) to the following formula: Dried cell density (g/L)=([measuring result in process (5)]−[measuring result in process (1)])/0.1.
Performance of this processes for several times clarified the proportional relationship between the turbidity of the culture solution and the dried cell density. Therefore, the dried cell density was obtained from the measured turbidity in each of Comparative Examples 2 to 4 and Examples 2 to 14.
The turbidity of a culture solution that is same as the culture solution used in the measurement of the dried cell density was measured using a turbidimeter (Shimadzu Corporation, UV-1700) and 1 ml of quarts cell.
For measurement, the culture solution was diluted in saline to have an appropriate absorbance. The absorbance of the same culture solution (but not containing bacteria) diluted at the same dilution as above was set as a blank. The turbidity of the culture solution was calculated by using the following formula: Turbidity of culture solution=[(measured turbidity of diluted culture solution)−(measured turbidity of blank)]×dilution rate.
The dried cell density and the turbidity of the culture solution were plotted to construct a graph in FIG. 3. […]

Row | Compound | Secretion efficiency (%) Escherichia coli (β) [1] | Secretion efficiency (%) Escherichia coli (α) [2] | Quantitative value of produced recombinant protein [3] | Dried cell density [4] | Turbidity [4]
1 | Palm oil fatty acid amide propyl dimethyl amino acetate betaine [A-3] | 93.6% | 91.3% |  |  | 
2 | CCCCCCCCCCCC(=O)NCCN(CCO)CC(=O)O.[Na] [A-13, Sodium N-lauroyl-N′-carboxymethyl-N′-hydroxyethyl ethylenediamine] |  | 46.6% | 1.79 g/L | 21.4 g/L | 76.4
3 | CCCCCCCCCCCC[N+](C)(C)CC(=O)[O-] [A-5, Lauryl dimethylamino acetate betaine] |  | 87.8% | 2.58 g/L | 23.8 g/L | 85
4 | Sodiumt polyoxyethylene (3 mol) laurylether acetate [A-9] |  | 63.3% | 1.35 g/L | 14.2 g/L | 50.7
